According to patent publication US9109041B2, “Analog compounds of analgesic peptides derived from the venom of crotalus durissus terrificus snakes, their uses, compositions, methods of preparation and purification” (priority 2004, dated 2015):

Legend:
[1] = tested on: hyperalgesia induced by chronic constriction of the sciatic nerve; experiment: hyperalgesia induced by chronic constriction of the sciatic nerve (rat paw pressure test); format: in vivo; conditions: saline + antagonist alone i.pl. (ICI 10, nor-BNI 50, CTOP 20 μg/paw); for pain threshold, FM 1 h: 1 h after treatment; for pain threshold, MF 3 h: 3 h after treatment; for pain threshold, BM: before surgery; for pain threshold, IM: day 14, before treatment
Protocol: (§1) For the induction of neuropathic pain, surgery was performed in the sciatic nerve, in accordance with the method described by Bennett, G. J and Xie, Y. K. (Pain, 33:87-107, 1988). The animals were anesthetized with halothane. The sciatic nerve was exposed in the middle region of the thigh, moving away the femoral biceps muscle. Close to the trifurcation of the sciatic nerve, 7 mm of distance from the trifurcation, 4 loose ligations were performed (chromed catgut 4-0) around it, distant from each other in approximately 1 mm. The bindings were performed along the nerve, up to 4-5 mm from the initial point. The incision was sutured in layers, using silk suture thread number 4-0.
The test was applied before (BM-basal measurement) and on the 14th day after the surgery, to characterize the development of neuropathic pain.
The results were analyzed by comparing the means of the basal and initial measurements or by comparing the means of the initial and final measurements or, when determined, through the comparison of the means obtained in the different experimental groups.
(§2) For this purpose, the animals were treated with CTOP, a specific μ receptor antagonist (20 μg/paw), nor-BNI, a specific κ receptor antagonist (50 μg/paw) or with ICI 174,864, a specific δ receptor antagonist (10 μg/paw). The antagonists were injected, by intraplantar route. The peptide was administered in the dose of 5 μg/kg, orally, immediately before the injection of the opioid antagonists.
(§3) The results were analyzed comparing the mean values of the basal and initial measurements, or of the initial and final measurements or, when determined, by comparing the mean values obtained in the different experimental groups (Tables 15 and 16).

[2] = tested on: allodynia induced by constriction of the sciatic nerve; experiment: allodynia induced by chronic constriction of the sciatic nerve (von Frey hairs); format: in vivo, rat; conditions: saline + antagonist alone i.pl. (ICI 10, nor-BNI 50, CTOP 20 μg/paw); for paw withdrawal threshold (allodynia), FM 1 h: 1 h after treatment; for paw withdrawal threshold (allodynia), FM 3 h: 3 h after treatment; for paw withdrawal threshold (allodynia), BM: before surgery; for paw withdrawal threshold (allodynia), IM: day 14, before treatment
Protocol: as §1
Allodynia was evaluated for quantitative testing, in response to tactile stimulus applied to the paws of the rat, according to the method described by Chaplan el al. (1994), modified. In this test, the rats were placed, individually, in plastic cages, with meshed wire at the bottom, to allow access to the paws of these animals. Briefly, a logarithmic series of 10 calibrated Semmes-Weinstein monofilaments (von Frey hairs, Aesthesiometer Semmer-Weinstein, Stoelting Co., E.U.A) was applied to the right hind paw to determine the stimulus intensity threshold stiffness required to elicit a paw withdrawal response. Log stiffness of the hairs is determined by log 10 (mg×10) having the following values (the value in grams is between parenthesis): 3.61 (0.407 g); 3.84 (0.692 g); 4.08 (1.202 g); 4.17 (1.479 g); 4.31 (2.041 g); 4.56 (3.630 g); 4.74 (5.495 g); 4.93 (8.511 g); 5.07 (11.749 g) and 5.18 (15.136 g). It is important to point out that the filaments with weight greater than 15.136 g were not employed in the studies of allodynia.
The filaments were applied, one by one, perpendicularly, under the plantar area of both hind paws and maintained for a period of 8 seconds. The filament capable of eliciting the withdrawal of the paw, two consecutive times, was considered as the force in grams necessary to elicit the response (100% of response). In the absence of a response to the greater stimulus (15.135 g), this filament was considered as cut value.
The behavioral responses were used to calculate the 50% paw withdrawal threshold (absolute threshold), by fitting a gaussian integral psychometric function, using a maximum-likelihood fitting method. This fitting method allows parametric analyses.
The period of the application of the test and the treatments were the same as those used for determination of hyperalgesia (Table 12).
The results were analyzed by comparing the means of the basal and initial measurements or, when determined, by comparing the means obtained in the different experimental groups.
as §2, §3

[3] = tested on: prostaglandin E2-induced hyperalgesia; experiment: rat paw pressure test, prostaglandin E2-induced hyperalgesia; conditions: for pain threshold, IM (g) ± S.E.M.: saline p.o. + antagonist alone i.pl. (ICI174,864 10 μg/paw; nor-BNI 50 μg/leg; CTOP 20 μg/leg), before PGE2; for pain threshold, FM (g) ± S.E.M: saline p.o. + antagonist alone i.pl. with PGE2 (ICI174,864 10 μg/paw; nor-BNI 50 μg/leg; CTOP 20 μg/leg), 3 h after PGE2

Row | Compound | pain threshold, FM 1 h [1] [g] | pain threshold, MF 3 h [1] [g] | pain threshold, BM [1] [g] | pain threshold, IM [1] [g] | paw withdrawal threshold (allodynia), FM 1 h [2] | paw withdrawal threshold (allodynia), FM 3 h [2] | paw withdrawal threshold (allodynia), BM [2] | paw withdrawal threshold (allodynia), IM [2] | pain threshold, IM (g) ± S.E.M. [3] [g] | pain threshold, FM (g) ± S.E.M [3] [g]
1 | Oc1ccc2c3c1O[C@H]1c4[nH]c5c(c4C[C@@]4(O)[C@@H](C2)N(CC2CC2)CC[C@]314)C[C@@]1(O)[C@H]2Cc3ccc(O)c4c3[C@@]1(CCN2CC1CC1)[C@H]5O4 [nor-BNI, nor-Binalthorphimine, reference compound] | 32 ± 1.22 | 31 ± 1.00 | 72 ± 1.22 | 32 ± 1.22 | 4.22 ± 0 log 10 (mg × 10) | 4.22 ± 0 log 10 (mg × 10) | 5.08 ± 0 log 10 (mg × 10) | 4.22 ± 0 log 10 (mg × 10) | 72 ± 1.44 | 56 ± 1.25
2 | CTOP [reference compound] | 30 ± 1.58 | 30 ± 1.58 | 72 ± 1.22 | 28 ± 1.22 | 4.22 ± 0 log 10 (mg × 10) | 4.22 ± 0 log 10 (mg × 10) | 5.08 ± 0 log 10 (mg × 10) | 4.22 ± 0 log 10 (mg × 10) | 74 ± 2.39 | 56 ± 2.39
